Patent publication US20210253575A1, “PYRROLIDINE AMINE COMPOUNDS FOR THE TREATMENT OF AUTOIMMUNE DISEASE” (Hoffmann-La Roche Inc., priority 2018, published 2021)

Target: T1, human TLR9 (Homo sapiens, UniProt Q9NR96)
T1 sequence (Q9NR96 26-1032): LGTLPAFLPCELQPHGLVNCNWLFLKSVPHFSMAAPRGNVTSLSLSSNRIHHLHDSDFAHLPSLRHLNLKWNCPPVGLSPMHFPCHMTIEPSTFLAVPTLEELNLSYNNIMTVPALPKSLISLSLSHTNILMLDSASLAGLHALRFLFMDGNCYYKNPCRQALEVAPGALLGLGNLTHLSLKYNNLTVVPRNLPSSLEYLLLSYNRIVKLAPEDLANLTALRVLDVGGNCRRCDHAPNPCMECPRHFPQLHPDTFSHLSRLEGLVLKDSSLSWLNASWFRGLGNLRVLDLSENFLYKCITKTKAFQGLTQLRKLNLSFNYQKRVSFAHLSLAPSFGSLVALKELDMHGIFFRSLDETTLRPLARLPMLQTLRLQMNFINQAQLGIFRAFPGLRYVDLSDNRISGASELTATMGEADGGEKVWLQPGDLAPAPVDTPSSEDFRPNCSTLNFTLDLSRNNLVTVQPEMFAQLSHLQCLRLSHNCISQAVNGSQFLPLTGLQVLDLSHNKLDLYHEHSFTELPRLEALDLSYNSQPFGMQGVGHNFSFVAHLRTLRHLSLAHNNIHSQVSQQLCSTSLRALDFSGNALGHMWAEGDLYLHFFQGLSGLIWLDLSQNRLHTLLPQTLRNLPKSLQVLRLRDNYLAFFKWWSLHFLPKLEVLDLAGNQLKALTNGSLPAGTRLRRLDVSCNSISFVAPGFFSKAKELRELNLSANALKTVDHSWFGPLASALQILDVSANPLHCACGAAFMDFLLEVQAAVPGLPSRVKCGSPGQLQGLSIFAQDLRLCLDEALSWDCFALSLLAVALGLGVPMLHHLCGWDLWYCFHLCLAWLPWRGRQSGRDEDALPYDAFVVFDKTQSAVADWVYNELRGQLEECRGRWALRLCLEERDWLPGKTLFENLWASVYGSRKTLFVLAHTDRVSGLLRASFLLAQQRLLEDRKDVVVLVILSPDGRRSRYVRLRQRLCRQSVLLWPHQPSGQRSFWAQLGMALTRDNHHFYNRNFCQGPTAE
Assay: HEK293-Blue-hTLR-9 cells assay (SEAP reporter, ODN2006 stimulation)
Assay type: cell-based
Details: HEK293-Blue-hTLR9 cells, ODN2006 ligand, 20 hrs incubation
Summary of the method: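 HEK293-Blue-hTLR9 cells with NF-κB/AP-1-driven SEAP reporter, stimulated with ODN2006 in presence of serially diluted compounds (1% DMSO) for 20 h at 37 °C. Supernatant SEAP measured with QUANTI-Blue after 2 h at 37 °C, absorbance 620–655 nm.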

| SMILES | IC50 |
| --- | --- |
| N#Cc1ccc(N2CC(CN3CCNCC3)C3(CC3)C2)c2nccnc12 (centres unmarked) [Example 3, 8-[7-(piperazin-1-ylmethyl)-5-azaspiro[2.4]heptan-5-yl]quinoxaline-5-carbonitrile] | 1870 nM |
| N#Cc1ccc(N2CC(CN3CC4CCC(C3)C4N)C3(CC3)C2)c2nccnc12 (centres unmarked) [Example 4, 8-[7-[(8-Amino-3-azabicyclo[3.2.1]octan-3-yl)methyl]-5-azaspiro[2.4]heptan-5-yl]quinoxaline-5-carbonitrile] | 244 nM |
| CN(C)[C@@H]1CCN(C[C@H]2CN(c3ccc(C#N)c4nccnc34)C[C@@H]2C(F)(F)F)C1 [Example 83, 8-[(3S,4R)-3-[[(3R)-3-(dimethylamino)pyrrolidin-1-yl]methyl]-4-(trifluoromethyl)pyrrolidin-1-yl]quinoxaline-5-carbonitrile] | 2020 nM |
| CN1CCC2(CCN(C[C@H]3CN(c4ccc(C#N)c5nccnc45)C[C@@H]3C(F)(F)F)C2)C1 (stereo partly drawn) [Example 84, 8-[(3S,4R)-3-[(7-methyl-2,7-diazaspiro[4.4]nonan-2-yl)methyl]-4-(trifluoromethyl)pyrrolidin-1-yl]quinoxaline-5-carbonitrile] | 409 nM |
| CC1(CN)CCN(C[C@H]2CN(c3ccc(C#N)c4nccnc34)C[C@@H]2C(F)(F)F)C1 (stereo partly drawn) [Example 85, 8-[(3S,4R)-3-[[3-(aminomethyl)-3-methyl-pyrrolidin-1-yl]methyl]-4-(trifluoromethyl)pyrrolidin-1-yl]quinoxaline-5-carbonitrile] | 314 nM |
